Legend:
[1] = test system: U-87 MG; experiment: Antiproliferative activity against human U87 cells assessed as inhibition of cell growth inhibition incubated for 48 hrs by CCK-8 assay; format: functional, cell-based, U-87MG ATCC
[2] = Cytotoxicity against HUVEC cells assessed as inhibition of cell growth inhibition incubated for 48 hrs by CCK-8 assay; format: toxicity, cell-based; details: human
[3] = test system: Huh-7; experiment: Antiproliferative activity against human Huh-7 cells assessed as inhibition of cell growth inhibition incubated for 48 hrs by CCK-8 assay; format: functional, cell-based; details: Huh-7, 48 h
[4] = test system: A549; experiment: Antiproliferative activity against human A549 cells assessed as inhibition of cell growth inhibition incubated for 48 hrs by CCK-8 assay; format: functional, cell-based; details: A549, 48 h
[5] = Apparent permeability across basolateral to apical side in MDCK-MDR1 cells at 10 uM incubated for 90 mins by LC-MS/MS analysis; format: ADME, cell-based, Canis lupus familiaris; details: dog
[6] = Toxicity in C57BL/6 mouse implanted with mouse GL261-Luc cells assessed as reduction in body weight at 5 to 10 mg/kg, iv administered every other day on day 0,2,4,6,8,10 and measured after 12 days; format: organism-based; details: in vivo, 288 h, dose 5-10 mg/kg, time 12 day
[7] = Toxicity in C57BL/6 mouse implanted with mouse GL261-Luc cells assessed as reduction in body weight at 5 mg/kg, iv administered every other day on day 0,2,4,6,8,10 and measured after 12 days; format: organism-based; details: in vivo, 288 h, time 12 day
[8] = Apparent permeability across apical to basolateral side in MDCK-MDR1 cells at 10 uM incubated for 90 mins by LC-MS/MS analysis; format: ADME, cell-based, Canis lupus familiaris; details: dog
[9] = test system: P-gp; experiment: Substrate activity at P-gp in MDCK-MDR1 cells assessed as efflux ratio of apparent permeability across basolateral to apical side over apical to basolateral side at 10 uM incubated for 90 mins by LC-MS/MS analysis; format: ADME, cell-based, Canis lupus familiaris; details: dog
[10] = test system: U-87 MG; experiment: Induction of cell cycle arrest in human U87 cells assessed as accumulation of cells at G1 phase at 25 nM measured after 48 hrs by PI staining based flow cytometry analysis (reference value: 72.6%); format: functional, U-87MG ATCC
[11] = test system: U-87 MG; experiment: Induction of cell cycle arrest in human U87 cells assessed as accumulation of cells at […] at 25 nM measured after 48 hrs by PI staining based flow cytometry analysis (reference value: 8.55%); format: functional, U-87MG ATCC

Row | IC50 [1] [µM] | IC50 [3] [µM] | IC50 [4] [µM] | Papp B→A at 1.5 h, 10 µM [5] [×10⁻⁶ cm/s] | Papp A→B at 1.5 h, 10 µM [8] [×10⁻⁶ cm/s] | efflux ratio at 1.5 h, 10 µM [9] | SMILES | IC50 at 48 h [2] [µM] | Activity [6] | Activity [7] | Activity [10] [%] | Activity [11] [%]
1 | > 10 | > 10 | > 10 | – | – | – | CC(C)c1ccc(C2C(C#N)=C(N)Oc3c2ccc2cccnc32)cc1 (centres undefined) | > 10 | – | – | – | –
2 | 1.98 | 1.25 | 1.24 | – | – | – | Cc1ccc2ccc3c(c2n1)OC(N)=C(C#N)C3c1ccc(Cl)c(Cl)c1 (centres undefined) | 8.17 | – | – | – | –
3 | > 10 | 4.57 | > 10 | – | – | – | N#CC1=C(N)Oc2c(cc(Cl)c3cccnc23)C1c1ccc(Cl)cc1 (centres undefined) | 7.65 | – | – | – | –
4 | > 10 | > 10 | > 10 | – | – | – | N#CC1=C(N)Oc2c(ccc3cccnc23)C1c1ccc(F)cc1 (centres undefined) | > 10 | – | – | – | –
5 | > 10 | 2.95 | > 10 | – | – | – | COc1ccc(C2C(C#N)=C(N)Oc3c2ccc2cccnc32)cc1OC (centres undefined) | > 10 | – | – | – | –
6 | 5.93 | 3.46 | 2.44 | – | – | – | CCc1ccc(C2C(C#N)=C(N)Oc3c2ccc2ccc(C)nc32)cc1 (centres undefined) | > 10 | – | – | – | –
7 | 4.68 | 4.64 | 8.13 | – | – | – | COc1cc(OC)c(C2C(C#N)=C(N)Oc3c2ccc2ccc(C)nc32)cc1OC (centres undefined) | 7.87 | – | – | – | –
8 | > 10 | > 10 | > 10 | – | – | – | N#CC1=C(N)Oc2c(ccc3cccnc23)C1c1ccc(Br)cc1 (centres undefined) | > 10 | – | – | – | –
9 | 6.18 | 2.35 | 4.95 | – | – | – | N#CC1=C(N)Oc2c(ccc3cccnc23)C1c1ccc(Cl)c(Cl)c1 (centres undefined) | 8.23 | – | – | – | –
10 | > 10 | 2.47 | > 10 | – | – | – | N#CC1=C(N)Oc2c(ccc3cccnc23)C1c1ccccc1 (centres undefined) | > 10 | – | – | – | –
11 | > 10 | > 10 | > 10 | – | – | – | N#CC1=C(N)Oc2c(cc(Cl)c3cccnc23)C1c1ccc(F)cc1 (centres undefined) | > 10 | – | – | – | –
12 | > 10 | > 10 | > 10 | – | – | – | COc1ccc(C2C(C#N)=C(N)Oc3c2cc(Cl)c2cccnc32)cc1OC (centres undefined) | > 10 | – | – | – | –
13 | 4.13 | 2.14 | 6.42 | – | – | – | N#CC1=C(N)Oc2c(cc(Cl)c3cccnc23)C1c1ccc(Cl)c(Cl)c1 (centres undefined) | > 10 | – | – | – | –
14 | > 10 | > 10 | 8.12 | – | – | – | Cc1ccc2ccc3c(c2n1)OC(N)=C(C#N)C3c1ccc(Br)cc1 (centres undefined) | > 10 | – | – | – | –
15 | 6.12 | 5.51 | 3.05 | – | – | – | Cc1ccc(C2C(C#N)=C(N)Oc3c2ccc2ccc(C)nc32)cc1 (centres undefined) | 9.02 | – | – | – | –
16 | 3.69 | 2.22 | > 10 | – | – | – | Cc1ccc2ccc3c(c2n1)OC(N)=C(C#N)C3c1cccc(Cl)c1Cl (centres undefined) | > 10 | – | – | – | –
17 | – | – | – | 31.8 | 30.6 | 1.04 | Cn1nnc2c(C(N)=O)ncn2c1=O [TEMOZOLOMIDE] | – | Non-Toxic | Non-Toxic | – | –

Row | IC50 [1] [µM] | IC50 [3] [µM] | IC50 [4] [µM] | Papp B→A at 1.5 h, 10 µM [5] [×10⁻⁶ cm/s] | Papp A→B at 1.5 h, 10 µM [8] [×10⁻⁶ cm/s] | efflux ratio at 1.5 h, 10 µM [9] | SMILES | IC50 at 48 h [2] [µM] | Activity [6] | Activity [7] | Activity [10] [%] | Activity [11] [%]
18 | – | – | – | 18 | 0.49 | 36.9 | C[C@H]1O[C@@H](O[C@H]2[C@@H](O)C[C@H](O[C@H]3[C@@H](O)C[C@H](O[C@H]4CC[C@@]5(C)[C@H](CC[C@@H]6[C@@H]5C[C@@H](O)[C@]5(C)[C@@H](C7=CC(=O)OC7)CC[C@]65O)C4)O[C@@H]3C)O[C@@H]2C)C[C@H](O)[C@@H]1O [DIGOXIN] | – | – | – | – | –
19 | 4.38 | 0.3 | 9.66 | – | – | – | N#CC1=C(N)Oc2c(cc(Cl)c3cccnc23)C1c1ccccc1 (centres undefined) | > 10 | – | – | – | –
20 | > 10 | > 10 | > 10 | – | – | – | COc1ccc(C2C(C#N)=C(N)Oc3c2ccc2cccnc32)c(OC)c1OC (centres undefined) | > 10 | – | – | – | –
21 | 5.27 | 4.89 | 6.16 | – | – | – | COc1ccc(C2C(C#N)=C(N)Oc3c2ccc2ccc(C)nc32)c(OC)c1OC (centres undefined) | > 10 | – | – | – | –
22 | 4.85 | > 10 | > 10 | – | – | – | COc1ccc(C2C(C#N)=C(N)Oc3c2ccc2ccc(C)nc32)cc1OC (centres undefined) | > 10 | – | – | – | –
23 | 2.87 | 2.6 | 1.59 | – | – | – | COc1cc(C2C(C#N)=C(N)Oc3c2ccc2ccc(C)nc32)cc(OC)c1Br (centres undefined) | > 10 | – | – | – | –
24 | > 10 | > 10 | > 10 | – | – | – | N#CC1=C(N)Oc2c(cc(Cl)c3cccnc23)C1c1ccc(Br)cc1 (centres undefined) | > 10 | – | – | – | –
25 | > 10 | > 10 | > 10 | – | – | – | N#CC1=C(N)Oc2c(ccc3cccnc23)C1c1ccc(Cl)cc1 (centres undefined) | > 10 | – | – | – | –
26 | – | – | – | – | – | – | COc1cc2c(c(OC)c1OC)-c1ccc(OC)c(=O)cc1[C@@H](NC(C)=O)CC2 [COLCHICINE] | – | – | – | 19.7 | 46.5
27 | 4.28 | 6.34 | 4.57 | – | – | – | Cc1ccc2ccc3c(c2n1)OC(N)=C(C#N)C3c1ccc(C(C)C)cc1 (centres undefined) | > 10 | – | – | – | –
28 | > 10 | > 10 | > 10 | – | – | – | CC(C)c1ccc(C2C(C#N)=C(N)Oc3c2cc(Cl)c2cccnc32)cc1 (centres undefined) | > 10 | – | – | – | –
29 | 7.87 | 2 | 3.25 | – | – | – | Cc1ccc2ccc3c(c2n1)OC(N)=C(C#N)C3c1ccc(F)cc1 (centres undefined) | 7.58 | – | – | – | –
30 | > 10 | > 10 | > 10 | – | – | – | COc1ccc(C2C(C#N)=C(N)Oc3c2cc(Cl)c2cccnc32)c(OC)c1OC (centres undefined) | > 10 | – | – | – | –
31 | > 10 | > 10 | > 10 | – | – | – | Cc1ccc(C2C(C#N)=C(N)Oc3c2cc(Cl)c2cccnc32)cc1 (centres undefined) | > 10 | – | – | – | –
32 | > 10 | > 10 | > 10 | – | – | – | Cc1ccc(C2C(C#N)=C(N)Oc3c2ccc2cccnc32)cc1 (centres undefined) | > 10 | – | – | – | –
33 | 8.08 | 5.31 | > 10 | – | – | – | Cc1ccc2ccc3c(c2n1)OC(N)=C(C#N)C3c1ccc(Cl)cc1 (centres undefined) | > 10 | – | – | – | –

Row | SMILES | IC50 [1] [µM] | IC50 [3] [µM] | IC50 [4] [µM] | Papp B→A at 1.5 h, 10 µM [5] [×10⁻⁶ cm/s] | Papp A→B at 1.5 h, 10 µM [8] [×10⁻⁶ cm/s] | efflux ratio at 1.5 h, 10 µM [9] | IC50 at 48 h [2] [µM] | Activity [6] | Activity [7] | Activity [10] [%] | Activity [11] [%]
34 | CC[C@@]1(O)C(=O)OCc2c1cc1n(c2=O)Cc2cc3cc(O)ccc3nc2-1 [HYDROXYCAMPTOTHECIN] | 2.92 | 1.35 | 0.12 | – | – | – | 0.92 | – | – | – | –

Source: ChEMBL document CHEMBL5543095 (Eur J Med Chem, 2024)
